Consider eight molecules from ChEMBL document CHEMBL3352707, “Antimycobacterial activity of natural products and synthetic agents: pyrrolodiquinolines and vermelhotin as anti-tubercular leads against clinical multidrug resistant isolates of Mycobacterium tuberculosis” (Eur J Med Chem, 2015).

Common to all, as to format: functional
In assay [1] the test system is Mycobacterium tuberculosis. The assay is described as follows: Antimycobacterial activity against Ethionamide-resistant Mycobacterium tuberculosis H37Rv ATCC 35830 after 7 days by microplate Alamar blue assay. Conditions: H37Rv ATCC 35830, 168 h.
Assay [2] concerns Mycobacterium tuberculosis. The assay is described as follows: Antimycobacterial activity against pyrazinamide-resistant Mycobacterium tuberculosis H37Rv ATCC 35828 after 7 days by microplate Alamar blue assay. Conditions: H37Rv ATCC 35828, 168 h. (Alamar Blue is a resazurin reagent that responds to reducing activity.)
Assay [3] has as its system Mycobacterium tuberculosis. As to the kind of experiment: Antimycobacterial activity against isoniazid, rifampin, ethambutol, streptomycin-resistant Mycobacterium tuberculosis after 7 days by microplate Alamar blue assay. Conditions: 168 h.
For assay [4], the system named is Mycobacterium tuberculosis. The assay is described as follows: Antimycobacterial activity against isoniazid, rifampin, ethambutol, ofloxacin-resistant Mycobacterium tuberculosis after 7 days by microplate Alamar blue assay. Conditions: 168 h.
In assay [5] the test system is Mycobacterium tuberculosis. As to the kind of experiment: Antimycobacterial activity against isoniazid, rifampin, ethambutol, streptomycin, ofloxacin-resistant Mycobacterium tuberculosis after 7 days by microplate Alamar blue assay. Conditions: 168 h.
The test system of assay [6] is Mycobacterium tuberculosis. As to the kind of experiment: Antimycobacterial activity against isoniazid, rifampin, streptomycin-resistant Mycobacterium tuberculosis after 7 days by microplate Alamar blue assay. Conditions: 168 h.
Assay [7] has as its system Mycobacterium tuberculosis. The assay is described as follows: Antimycobacterial activity against isoniazid, rifampin-resistant Mycobacterium tuberculosis after 7 days by microplate Alamar blue assay. Conditions: 168 h.
Assay [8] deals with Mycobacterium tuberculosis. As to the kind of experiment: Antimycobacterial activity against isoniazid, rifampin, ethambutol-resistant Mycobacterium tuberculosis after 7 days by microplate Alamar blue assay. Conditions: 168 h.
For assay [9], the system named is Mycobacterium tuberculosis. The assay is described as follows: Antimycobacterial activity against isoniazid, rifampin, streptomycin, ofloxacin-resistant Mycobacterium tuberculosis after 7 days by microplate Alamar blue assay. Conditions: 168 h.

Each structure is given as a SMILES string. Values after ≈ are worked out from the molar mass of the structure shown.

Usually MIC stands for the lowest concentration that inhibits growth of the organism. Take `C[n+]1cc2c(cn3c4ccccc4ccc23)c2ccccc21.[I-]`: the minimal inhibitory concentration (MIC) in assay [1] and in [2] was 6.2 µg/mL each time.

For the molecule `CN1Cc2c(cn3c2ccc2ccccc23)-c2ccccc21`, the figures for the MIC in [1] and in assay [2] were 6.2 µg/mL (≈ 21.8 µM) and 3.1 µg/mL (≈ 10.9 µM), respectively.

In the case of `CC[C@@H](CO)NCCN[C@@H](CC)CO` [ETHAMBUTOL], the minimal inhibitory concentration (MIC) in [3] was at least 8 µg/mL; in [4], at least 8 µg/mL; in assay [5], at least 8 µg/mL; in [6] it was at most 2 µg/mL; in [7] it was at most 2 µg/mL; in [8], at least 8 µg/mL. In assay [9], the MIC is at most 2 µg/mL.

For the molecule `NNC(=O)c1ccncc1` [ISONIAZID], the MIC in [3], in [4], in assay [5], in assay [6], in assay [7] and in assay [8] was at least 2 µg/mL each time. For the same molecule, the minimum inhibitory concentration (MIC) in [9] was at least 2 µg/mL.

Take `CC1COc2c(N3CCN(C)CC3)c(F)cc3c(=O)c(C(=O)O)cn1c23` (stereo unspecified) [OFLOXACIN]: the minimum inhibitory concentration (MIC) in [3] is at most 2 µg/mL; in assay [4], at least 4 µg/mL; in assay [5] it was at least 4 µg/mL; in assay [6], at most 2 µg/mL; in assay [7], at most 2 µg/mL; in assay [8], at most 2 µg/mL. The MIC in assay [9] is at least 4 µg/mL.

Consider `CO[C@H]1/C=C/O[C@@]2(C)Oc3c(C)c(O)c4c(O)c(c(/C=N/N5CCN(C)CC5)c(O)c4c3C2=O)NC(=O)/C(C)=C\C=C\[C@H](C)[C@H](O)[C@@H](C)[C@@H](O)[C@@H](C)[C@H](OC(C)=O)[C@@H]1C` [RIFAMPIN], for which the MIC in assay [3], in assay [4], in assay [5], in assay [6], in assay [7] and in assay [8] was at least 2 µg/mL throughout. The molecule further came in with an MIC in [9] of at least 2 µg/mL.

Consider `CN[C@@H]1[C@H](O[C@H]2[C@H](O[C@H]3[C@H](O)[C@@H](O)[C@H](N=C(N)N)[C@@H](O)[C@@H]3N=C(N)N)O[C@@H](C)[C@]2(O)C=O)O[C@@H](CO)[C@H](O)[C@H]1O` [STREPTOMYCIN], for which the MIC in assay [3] is at least 8 µg/mL; in assay [4] it was at most 2 µg/mL; in [5], at least 8 µg/mL; in [6], at least 8 µg/mL; in assay [7] it was at most 2 µg/mL; in [8], at most 2 µg/mL. The same molecule came in with an MIC in [9] of at least 8 µg/mL.

In the case of `C/C=C/C1=CC=C/C(=C2\C(=O)CNC2=O)O1` [VERMELHOTIN], the minimum inhibitory concentration (MIC) in [1] was 3.1 µg/mL (≈ 14.3 µM); in assay [2], 6.2 µg/mL (≈ 28.5 µM).
